Data reported in patent US10335448B2, “Compositions and methods for inhibiting fibrosis” (The UAB Research Foundation, priority 2014, dated 2019).
Entries after “also recorded” stand apart in the source; their conditions may differ. Where a SMILES comes first, the peptide text is derived from it.

Experiments:
rhACE = rhACE (Homo sapiens, UniProt P12821); details: not told
[1] = system: CXC receptors on neutrophils; details: Haddox et al. 1999; cited from earlier work
IMR-90 fibroblasts = test: Scratch wound migration of IMR-90 fibroblasts and TGF-β1-differentiated myofibroblasts; format: cell-based, human; details: 100 μM Ac-PGP, 48 h
Procedure: FIGS. 11A-H show IMR-90 fibroblasts under different conditions. IMR-90 fibroblasts were grown to 80-90% confluence (A, C) and differentiated to myofibroblasts with TGF-β1 (E, G). A scratch was made and 100 μM Ac-PGP was added to some cells (FIGS. 11C, G).
(§1) The simplest explanation for this is a direct effect of Ac-PGP on the myofibroblast, altering its phenotype to stop or perhaps reverse fibrosis. […] Human lung fibroblasts were co-incubated with TGF-β and Ac-PGP and the effects on matrix generation and markers of MF activation and differentiation were observed.

[2] = system: IMR-90 fibroblasts differentiated to myofibroblasts; test: Western blot of matrix and differentiation markers in IMR-90 myofibroblasts (TGF-β plus Ac-PGP); format: cell-based, human
Procedure: IMR-90 fibroblasts were differentiated to myofibroblasts with TGF-β 2.5 ng/ml. Ac-PGP at differing concentrations (0, 1, 3, 10 and 30 μg/ml) was added at the same time. Whole cell lysates were obtained after 48 h and probed by WB for the indicated proteins.
as §1

[3] = system: bleomycin-induced lung fibrosis; test: Bleomycin-induced pulmonary fibrosis in mice, peptide given intratracheally; details: for lung fibrosis measured as lung hydroxyproline, second trial: 250 μg IT daily for two weeks starting day 7, n=6 (FIG. 6); for lung fibrosis on histology (H&E), second trial: 250 μg per day IT for 2 weeks starting day 7 (FIG. 5); for pulmonary fibrosis, summary statement: intra-tracheal administration to bleomycin-exposed mice
[4] = system: bleomycin-induced lung fibrosis; details: background statement; cited from earlier work
[5] = TGF-β 2.5 ng/ml, Ac-PGP 1-30 μg/ml, 48 h, WB

rhACE, sequence (P12821 30-1306): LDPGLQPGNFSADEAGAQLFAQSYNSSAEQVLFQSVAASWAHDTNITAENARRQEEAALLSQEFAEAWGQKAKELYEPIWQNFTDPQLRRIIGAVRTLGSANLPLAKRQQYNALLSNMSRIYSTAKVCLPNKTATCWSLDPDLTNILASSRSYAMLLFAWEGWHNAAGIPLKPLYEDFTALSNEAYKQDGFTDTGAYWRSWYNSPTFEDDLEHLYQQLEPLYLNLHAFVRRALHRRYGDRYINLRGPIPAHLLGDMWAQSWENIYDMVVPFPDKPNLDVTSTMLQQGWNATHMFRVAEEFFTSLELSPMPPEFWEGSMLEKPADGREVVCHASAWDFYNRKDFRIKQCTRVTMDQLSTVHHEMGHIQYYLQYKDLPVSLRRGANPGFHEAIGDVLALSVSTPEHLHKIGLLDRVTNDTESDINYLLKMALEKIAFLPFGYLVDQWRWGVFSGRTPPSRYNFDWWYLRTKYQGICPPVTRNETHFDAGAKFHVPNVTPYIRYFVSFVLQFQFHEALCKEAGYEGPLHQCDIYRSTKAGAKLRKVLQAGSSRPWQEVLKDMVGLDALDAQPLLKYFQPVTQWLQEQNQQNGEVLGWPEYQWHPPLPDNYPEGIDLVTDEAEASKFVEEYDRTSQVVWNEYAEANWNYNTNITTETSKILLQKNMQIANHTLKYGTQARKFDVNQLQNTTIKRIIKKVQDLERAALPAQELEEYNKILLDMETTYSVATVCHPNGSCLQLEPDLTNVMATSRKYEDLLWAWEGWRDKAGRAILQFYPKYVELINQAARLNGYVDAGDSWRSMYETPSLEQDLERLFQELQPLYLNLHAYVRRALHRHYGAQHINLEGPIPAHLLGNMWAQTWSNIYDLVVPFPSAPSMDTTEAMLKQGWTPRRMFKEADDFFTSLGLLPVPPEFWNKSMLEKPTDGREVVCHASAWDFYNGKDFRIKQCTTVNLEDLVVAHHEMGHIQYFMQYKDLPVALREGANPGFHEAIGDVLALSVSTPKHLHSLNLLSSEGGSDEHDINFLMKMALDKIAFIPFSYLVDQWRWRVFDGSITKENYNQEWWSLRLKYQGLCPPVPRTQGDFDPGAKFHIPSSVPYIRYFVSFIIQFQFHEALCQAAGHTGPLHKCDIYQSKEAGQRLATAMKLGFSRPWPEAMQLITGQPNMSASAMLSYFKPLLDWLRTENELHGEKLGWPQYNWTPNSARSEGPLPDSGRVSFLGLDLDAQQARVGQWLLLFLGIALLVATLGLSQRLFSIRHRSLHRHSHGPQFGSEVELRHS

Compound | Ac-PGP breakdown by rhACE (in words) (rhACE) | potency relative to PGP [1] | migration of un-differentiated fibroblasts across the wound (IMR-90 fibroblasts) | migration of myofibroblasts across the wound (IMR-90 fibroblasts; TGF-β1-differentiated) | myofibroblast differentiation and pro-fibrotic functions in vitro, summary statement [2] | SRC phosphorylation [2, 5] | collagen expression [2, 5] | fibronectin expression [2, 5] | α-SMA expression [2, 5] | dose giving the greatest inhibition of myofibroblasts ([2]; lesser effects at 30 and 10 μg/ml) | effectiveness on lung fibrosis measured as lung hydroxyproline ([3]; 125 μg per day IT, days 7 to 21, n=8 (FIG. 4)) | effectiveness at abrogating bleomycin-induced pulmonary fibrosis, second trial ([3]; 250 μg IT daily (FIG. 5)) | lung fibrosis measured as lung hydroxyproline, second trial [3] | lung fibrosis measured as lung hydroxyproline ([3]; 250 μg IT daily for two weeks starting day 7, n=8 (FIG. 4)) | lung fibrosis on histology (H&E), second trial [3] | lung fibrosis on lung histology (H&E) ([3]; Ac-PGP 125 μg IT per day, days 7 to 21 after bleomycin (FIG. 3)) | lung fibrosis on lung histology (H&E) ([3]; Ac-PGP 250 μg IT daily for two weeks starting day 7 after bleomycin, vs PBS-treated controls (FIG. 3)) | pulmonary fibrosis, summary statement [3] | fibrosis in the bleomycin model [4]
CC(=O)N1CCC[C@H]1C(=O)NCC(=O)N1CCC[C@H]1C(=O)O [Ac-PGP, N-acetyl-proline-glycine-proline] (Ac-Pro-Gly-Pro-OH; C-terminus assumed) | degraded | several times more potent | did not affect; also recorded: but not fibroblasts | markedly reduced; also recorded: inhibited migration | inhibited myofibroblast differentiation and pro-fibrotic functions | reduced | reduced | reduced | reduced | 3 µg/mL | about 50% | ~100% | almost completely abrogates | almost completely abrogates | abrogates | intermediate effect; also recorded: about half as effective | almost completely abrogates lung fibrosis; also recorded: almost completely abrogated | abrogated pulmonary fibrosis dose-dependently; also recorded: dramatic inhibition of fibrosis; also recorded: greatly reduces fibrosis | 
C[C@H](CS)C(=O)N1CCC[C@H]1C(=O)O [Captopril, reference compound] |  |  |  |  |  |  |  |  |  |  |  |  |  |  |  |  |  |  | reduces fibrosis
O=C(NCC(=O)N1CCC[C@H]1C(=O)O)[C@@H]1CCCN1 [PGP, proline-glycine-proline] (H-Pro-Gly-Pro-OH; C-terminus assumed) |  |  |  |  |  |  |  |  |  |  |  |  | less effective |  | partially effective; also recorded: half as effective |  |  | partial effect | 
